Experimental data reported in patent US5405857A, “3-substituted 1,2,3,4,-oxatriazole-5-imine compounds, a process for the preparation thereof and a pharmaceutical preparation containing said compounds” (A/S GEA Farmaceutisk Fabrik, priority 1991, dated 1995).
Where a name gives a salt, the structure may show the parent alone. Read-outs that look alike come from different tables or passages of the source. Blank lines part the entries; values can stand above or below the compound they belong to.

Assays:
blood platelets = experiment: Inhibition of blood platelet aggregation (aggregometer, ADP); type: cell-based, human (healthy testees); conditions: for IC50: Platelet, 0.05 h, read-out: IC50 (Inhibition of blood platelet aggregation)
Method: Compounds according to the invention were tested for their inhibition of clumping together (aggregation) of blood platelets (thrombocytes), which is the first phase of the formation of blood clots (thrombi). Such an inhibition may prevent the formation of blood clots and inhibit the development of new thrombi after a diagnosed thrombus.
Citrate stabilized ( 0.38% of sodium citrate, final concentration) venous blood from healthy testees is used, who have not used medicine for at least 8 days. Slight centrifugation (160×g for 10 minutes) results in PRP (blood plasma rich in platelets) which is pipetted. PPP (blood plasma poor in platelets) is obtained by an intense centrifugation (3000×g for 10 minutes) of the remaining blood. The light transmission is measured by the aggregometer (CHRONOLOG). PRP allows nearly no light transmitaaion, while PPP allows complete transmission of light. The PRP is placed in the aggregometer at 37° C. while being stirred by a magnet. Addition of a pro-aggregating substance causes the PRP to aggregate gradually and an increasing light transmission takes place at the same time. At complete aggregation a light transmission corresponding to PPP is obtained. Adnosine diphosphate (ADP) is used as pro-aggregating substance, said substance representing a basic biochemical mechanism for aggregation of blood platelets. The test substances are incubated for 3 minutes in PRP placed in the aggregometer at 37° C. during magnetic stirring. A predetermined positively aggregating dosage of adenosine diphosphate (ADP) (2 to 4 μM) is then added. […] A so-called IC50 -value (that is the concentration inhibiting the aggregation by 50% relative to the control aggregation) is calculated for each test substance by linear regression analysis (log concentration μM as constant ad abscissa and % inhibition as variable ad ordinate). The following known reference substances have been used: nitroglycerine (GTN), sodium nitroprusside (NNP) and SIN-1 (the active metabolite of molsidomine).

male rats = conditions: rat, in vivo, po, 20 mg/kg
Method: Two tests were carried out on male rats, namely a determination of the "maximum tolerable dose" (MTD) and a test using multiple peroral doses. In addition, a LD50 test was carried out intravenously on mice.
At this test the substances were administered perorally in a dose of 20 mg per kg. as solutions or suspensions once a day for 5 days to groups of 5 animals. Clinical observations were made every day and the above hematological parameters were measured on the third day of the test.

[1] = molecular target: T1, soluble guanylate cyclase (Homo sapiens, UniProt Q02153); experiment: Stimulation of guanylate cyclase from blood platelets (RIA); type: biochemical; conditions: 37° C.
T1 construct: The guanylate cyclase activity in the supernatant after incubation with and without the test substance; endogenous in cells; host or cells: human blood platelets, supernatant of homogenate
T1 sequence (Q02153 1-619): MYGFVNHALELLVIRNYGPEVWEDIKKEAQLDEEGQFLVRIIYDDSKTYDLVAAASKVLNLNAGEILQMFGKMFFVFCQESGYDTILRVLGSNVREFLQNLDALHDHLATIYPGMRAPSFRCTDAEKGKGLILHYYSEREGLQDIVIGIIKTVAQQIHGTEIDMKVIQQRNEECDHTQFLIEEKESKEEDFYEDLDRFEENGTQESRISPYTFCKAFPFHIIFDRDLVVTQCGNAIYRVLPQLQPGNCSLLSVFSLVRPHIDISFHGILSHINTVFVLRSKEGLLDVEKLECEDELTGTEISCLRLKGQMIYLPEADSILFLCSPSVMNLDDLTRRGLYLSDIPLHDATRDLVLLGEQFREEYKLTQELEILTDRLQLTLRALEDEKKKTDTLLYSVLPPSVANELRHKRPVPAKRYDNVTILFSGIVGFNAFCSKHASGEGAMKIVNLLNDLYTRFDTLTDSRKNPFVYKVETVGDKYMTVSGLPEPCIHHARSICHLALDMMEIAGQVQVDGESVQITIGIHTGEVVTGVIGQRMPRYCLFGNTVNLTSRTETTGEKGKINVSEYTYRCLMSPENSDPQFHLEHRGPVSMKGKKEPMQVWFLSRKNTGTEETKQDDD
T1 sequence (Q02108 1-690 partner): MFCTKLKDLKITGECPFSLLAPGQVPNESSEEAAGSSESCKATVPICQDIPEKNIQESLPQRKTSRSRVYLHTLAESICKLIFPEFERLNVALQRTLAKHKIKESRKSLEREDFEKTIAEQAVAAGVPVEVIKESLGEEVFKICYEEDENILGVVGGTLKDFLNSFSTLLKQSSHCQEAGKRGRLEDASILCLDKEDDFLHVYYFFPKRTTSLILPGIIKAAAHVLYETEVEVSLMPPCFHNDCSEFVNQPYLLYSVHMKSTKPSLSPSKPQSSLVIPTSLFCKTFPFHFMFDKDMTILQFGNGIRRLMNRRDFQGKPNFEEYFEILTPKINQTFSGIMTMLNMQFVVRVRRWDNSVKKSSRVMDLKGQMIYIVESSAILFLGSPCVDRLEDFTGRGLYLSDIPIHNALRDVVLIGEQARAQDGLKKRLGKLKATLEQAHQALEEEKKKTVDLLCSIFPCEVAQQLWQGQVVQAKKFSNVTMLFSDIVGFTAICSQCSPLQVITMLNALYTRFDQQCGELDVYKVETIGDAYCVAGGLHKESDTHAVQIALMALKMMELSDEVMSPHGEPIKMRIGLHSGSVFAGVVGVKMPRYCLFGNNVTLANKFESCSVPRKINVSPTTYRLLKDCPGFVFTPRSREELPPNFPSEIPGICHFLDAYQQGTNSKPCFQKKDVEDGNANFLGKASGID

[2] = test system: polymorph nuclear leukocytes (PMNs), c-GMP; experiment: Stimulation of c-GMP content in PMNs; type: cell-based, human; conditions: 37° C., 10 minutes
Method: Compounds according to the invention were tested for their ability to increase the content of cyclic guanosine monophosphate (c-GMP), to inhibit the synthesis of the leukotriene B4 (LTB4), and to inhibit the chemotactical movement of polymorph nuclear leukocytes (PMN). The polymorph nuclear leukocytes play a vital part in the cellular part of the inflammation process. At diseases, such as asthma, the mucuos membrane of the respiratory passages is swollen as a result of an inflammation with a significant infiltration of polymorph nuclear leukocytes (PMN's) in particular. Particularly effective substances for the treatment of asthma are such which in addition to relaxing the musculature in the respiratory passages also have an anti-inflammatory effect on the cellular phase of the inflammatory process, that is inhibiting the leukocyte function.
Isolated human PMNs are incubated at 37° C. for 10 minutes, whereafter the content of cyclic guanosine monophosphate (c-GMP) is measured. Further, the synthesis of the LTB4 is determined after stimulation with Ca-ionophore (A23187) and the chemotaxis (controlled movement) towards FMLP (a substance attracting the polymorph nuclear leukocytes, PMNs) is determined.
Three compounds according to the invention and the reference substance SIN-1 were tested for their ability to stimulate the content of cyclic guanosine monophosphate (c-GMP).

PAI-1 = experiment: Inhibition of plasminogen activator inhibitor (PAI-1) from blood platelets (fibrinolytic activity); type: cell-based, human; conditions: 50 μM, 60 minutes; for % Inhibition of PAI-1 activity: compared to control; for PAI-1 activity: human PRP, control 3.24
Method: Compounds according to the invention were tested for their inhibition of plasminogen activator inhibitor (PAI). An established thrombus comprises aggregated platelets cohered by fibrin. The organism has a fibrinolyric system for maintaining normal physiological conditions. Endogenous plasminogen is activated to plasmin (fibrinolysin, that is a proteolytic enzyme decomposing fibrin) by means of a tissue plasminogen activator (t-PA). The platelets include the enzyme PAI-1 inhibiting the activation of plasminogen to plasmin, and thus also the decomposition of fibrin.
A general stimulation of the fibrinolytic system can cause serious hemostatic side effects (haemorrhages). A specific inhibition of PAI-1 induces an increased fibrinolysis in areas with many platelets, which is exactly the case in thrombi. As a result a thrombolytic effect is obtained.
Human PRP prepared by slight centrifugation as previously mentioned is used, but at a low temperature (4° C.). By incubation of PRP (1 ml in a plastic tube) during a slight shaking at 37° C. the PAI-1 activity is liberated, said PAI-1 activity being measured spectrophotometrically by means of a two-step procedure using commercial kits (Spectrolyse™/fibrin kit from BIOPOOL, Sweden).
The PAI-1 activity of the control PRP and PRP incubated with each of 6 compounds according to the invention and the reference substance sodium niroprusside (NNP) (50 μM of each for 60 minutes) appear from Table 6.

[3] = human PRP, ADP 2 to 4 μM, 3 min incubation, 37° C.

IC50 (blood platelets; [3]): 0.1 µM
Structure (SMILES): N#Cc1cccc(-[n+]2noc([NH-])n2)c1 [Example 7]

Structure (SMILES): [NH-]c1n[n+](-c2ccc(Cl)cc2F)no1 [Example 26]
Clinical observations (male rats): N.R.
Hematological parameters (male rats): N.R.
Side effects (in words) (male rats): no side effects

Structure (SMILES): O=[N+]([O-])OCC(CO[N+](=O)[O-])O[N+](=O)[O-] [GTN, nitroglycerine, reference compound]
Inhibition of blood platelet aggregation (in words) (blood platelets; ADP, PRP): inactive
IC50 (blood platelets; [3]): 100 µM

Structure (SMILES): O=C([N-]c1n[n+](-c2cccc(C(F)(F)F)c2)no1)c1ccncc1 [Example 50]
IC50 (blood platelets; [3]): 0.09 µM
Clinical observations (male rats): N.R.
Hematological parameters (male rats): N.R.
Side effects (in words) (male rats): no side effects

Guanylate cyclase activity ([1]; 0.01 μM): 1761 pmole c-GMP/mg prot. × 15 minutes
Guanylate cyclase activity ([1]; 10 μm (so in the source)): 72730 pmole c-GMP/mg prot. × 15 minutes
Structure (SMILES): Cc1c(Cl)cccc1-[n+]1noc([N-]C2CCCCC2)n1 [Example 63]

Guanylate cyclase activity ([1]; 0.01 μM): 2374 pmole c-GMP/mg prot. × 15 minutes
Guanylate cyclase activity ([1]; 10 μm (so in the source)): 59716 pmole c-GMP/mg prot. × 15 minutes
Structure (SMILES): [NH-]c1n[n+](-c2ccc(Cl)c(Cl)c2)no1 [Example 24]
c-GMP in PMNs ([2]; 1 μM): 391 fmole/10^6 cells
c-GMP in PMNs ([2]; 10 μM): 965 fmole/10^6 cells
c-GMP in PMNs ([2]; 100 μM): 1078 fmole/10^6 cells
% Inhibition of PAI-1 activity (PAI-1): 34%
PAI-1 activity (PAI-1): 2.14 U/10^8 platelets

Structure (SMILES): [NH-]c1n[n+](-c2cccc(Cl)c2Cl)no1 [Example 21, 3-(2-chloro-3-chlorophenyl)-1,2,3,4-oxatriazole-5-imine]
Clinical observations (male rats): N.R.
Hematological parameters (male rats): N.R.
Side effects (in words) (male rats): no side effects

Guanylate cyclase activity ([1]; 0.01 μM): 383 pmole c-GMP/mg prot. × 15 minutes
Guanylate cyclase activity ([1]; 10 μm (so in the source)): 76915 pmole c-GMP/mg prot. × 15 minutes
Structure (SMILES): [NH-]c1n[n+](-c2c(Cl)cccc2Cl)no1 [Example 23]

Guanylate cyclase activity ([1]; 0.01 μM): 411 pmole c-GMP/mg prot. × 15 minutes
Guanylate cyclase activity ([1]; 10 μm (so in the source)): 37920 pmole c-GMP/mg prot. × 15 minutes
Structure (SMILES): [NH-]c1n[n+](-c2ccccc2C(F)(F)F)no1 [Example 2]

Guanylate cyclase activity ([1]; 0.01 μM): 2499 pmole c-GMP/mg prot. × 15 minutes
Guanylate cyclase activity ([1]; 10 μm (so in the source)): 47529 pmole c-GMP/mg prot. × 15 minutes
Structure (SMILES): [NH-]c1n[n+](-c2cccc(C(F)(F)F)c2)no1 [Example 3, 3-(3-trifluoromethylphenyl)-1,2,3,4-oxatriazole-5-imine hydrochloride]

Structure (SMILES): O=C([N-]c1n[n+](-c2ccc(Cl)cc2Cl)no1)c1cccnc1 [Example 43]
Clinical observations (male rats): N.R.
Hematological parameters (male rats): N.R.
Side effects (in words) (male rats): no side effects

Guanylate cyclase activity ([1]; 0.01 μM): 897 pmole c-GMP/mg prot. × 15 minutes
Guanylate cyclase activity ([1]; 10 μm (so in the source)): 64192 pmole c-GMP/mg prot. × 15 minutes
Structure (SMILES): N#Cc1ccc(-[n+]2noc([NH-])n2)cc1 [Example 8]
% Inhibition of PAI-1 activity (PAI-1): 44%
PAI-1 activity (PAI-1): 1.83 U/10^8 platelets

IC50 (blood platelets; [3]): 0.19 µM
Structure (SMILES): O=C([N-]c1n[n+](-c2cccc(C(F)(F)F)c2)no1)c1cccnc1 [Example 34]

Structure (SMILES): [NH-]c1n[n+](-c2ccc(Cl)c(C(F)(F)F)c2)no1 [Example 18]
IC50 (blood platelets; Homo sapiens): 0.54 µM
% Inhibition of PAI-1 activity (PAI-1): 40%
PAI-1 activity (PAI-1): 1.93 U/10^8 platelets
